Read-outs that look alike come from different tables or passages of the source.
What was measured:
MCF-7 cells = assay: cells; type: cell-based; conditions: read-out: IC50 MCF-7
SGC7901 cells = assay: cells; type: cell-based; conditions: read-out: IC50 SGC7901
HL-60 cells [1] = assay: cells; type: cell-based, human
GES-1 cells = assay: cells; type: cell-based; conditions: read-out: IC50 GES-1
HL-60 cells [2] = assay: Intracellular ROS level (DCFH-DA); type: cell-based, human; conditions: 2 μM 2a or 1.5 μM 2b, 24 h
Experimental: HL-60 cells treated with 2 μM 2a or 1.5 μM 2b were plated in 12-well plates. After 24 h, each sample of cells was collected and washed once with PBS. The cells were incubated with 300 μL FBS-free medium containing DCFH-DA (1 μM) for 30 min in dark at 37 °C. Data were obtained and analyzed using a C6 flow cytometer (BD Biosciences, USA)[27].
In laser scanning confocal experiment, the medium was removed after 24 h incubation. 1 mL FBS-free medium with DCFH-DA (10 μM) was added to each sample. Then continue the incubation for 30 min in dark at 37 °C. The samples were visualized and photographed using a C1-si Laser Scanning Confocal Microscope (Nikon, Japan).
(§1) In protective trial, the cells were pre-incubated with the protective agents for 4 h and other operations were in accordance with the above.

HEK293 cells = assay: cells; type: cell-based
HL-60 cells [3] = assay: Hoechst 33342 staining, morphology; type: cell-based, human; conditions: 2a (1 μM and 2 μM) or 2b (0.75 μM and 1.5 μM), 24 h
Experimental: HL-60 cells treated with 2a (1 μM and 2 μM) or 2b (0.75 μM and 1.5 μM) were plated in 12-well plates, and the medium was removed after 24 h, followed by the addition of 5 μg.mL^−1 Hoechst 33342. After being incubated for 30 min in dark at 37 °C, the samples were visualized and photographed using a C1-si Laser Scanning Confocal Microscope (Nikon, Japan)[27].

HL-60 cells [4] = type: cell-based, human; conditions: for apoptosis rate (FITC+/PI− and FITC+/PI+): control 2.9%
HL-60 cells [5] = assay: Total glutathione and GSH/GSSG level; type: cell-based, human; conditions: 2 μM 2a or 1.5 μM 2b; for ratio of GSH/GSSG: with or without 0.075 mM LA
Experimental: The cells were cultured in a 6-well plate and treated with 2 μM 2a or 1.5 μM 2b. After 24 h, the cells were collected and washed twice with PBS. The protein content was quantified by the use of Bradford procedure. Then each sample was treated according to the manufacturer’s instructions (beyotime, Shanghai, China). The absorbance was measured every 5 minutes at 405 nm with microplate reader.
as §1

HL-60 cells [6] = assay: Mitochondrial membrane potential (JC-1 or Rh123, flow cytometry); type: cell-based, human
Experimental: HL-60 cells treated with 2a (1.5 μM and 3 μM) or 2b (1 μM and 2 μM) were plated in 12-well plates. After 24 h, cells were collected and washed once with PBS. Then, the cells were handled with JC-1 according to the manufacturer’s instructions (Multi Sciences BiotechCo., Ltd, Hangzhou, China) or Rh123. Data were obtained and analyzed using a C6 flow cytometer (BD Biosciences, USA).
as §1

Caspase-3 in HL-60 cells = assay: Caspase-3 activity (colorimetric, cell extracts); type: cell-based, human
Experimental: HL-60 cells were treated with 3 μM 2a or 2 μM 2b for 12 h in a 6-well plate. Each sample was collected and washed twice with PBS. Then the cells were incubated with moderate lysis buffer from the kit on ice. The cell extract was handled on the basis of manufacturer’s instructions (beyotime, Shanghai, China). After 3 h, the absorbance at 405 nm was measured using a microplate reader.
as §1

HL-60 cells [7] = assay: Released cytochrome c level (ELISA); type: cell-based, human; conditions: 3 μM 2a or 2 μM 2b, 24 h
Experimental: HL-60 cells with 3 μM 2a or 2 μM 2b were incubated in a 12-well plate for 24 h. The cells were sacrificed and dealt with ELISA Kit (Meilian BiotechCo., Ltd, Shanghai, China) according to the manufacturer’s instructions. The absorbance was measured at 450 nm with microplate reader.
as §1

NIH3T3 cells = assay: cells; type: cell-based
normal leukocyte = assay: Effect on normal leukocyte (MTT viability and Annexin V-FITC/PI apoptosis); type: cell-based, human; conditions: 3.5 μM 2a, 2.5 μM 2b or 15 μM As2O3 for 6 h, 12 h or 24 h
Experimental: Normal human fresh peripheral blood with EDTA anticoagulant was dealt with Red Blood Cell Lysis Buffer according to manufacturer’s instructions (Beyotime, Shanghai, China) to obtain the normal leukocyte. […] Then, the apoptosis rate using Annexin V-FITC/PI staining and cell viability using MTT method were tested respectively. There are 8 independent normal human fresh peripheral blood samples in all to be tested. This study was carried out in accordance with relevant guidelines and regulations of Wuhan University and the experiment protocol was approved by Zhongnan Hospital of Wuhan University. Additionally, the informed consent was obtained from all subjects.

[8] = Homo sapiens, HL-60, 24 h, read-out: IC50 HL-60
[9] = Homo sapiens, HEK293, read-out: IC50 HEK293
[10] = 3 μM 2a or 2 μM 2b alone, 24 h (Fig. 2a, Fig. 6c)
[11] = 3 μM 2a or 2 μM 2b alone, 24 h, LA experiment (Fig. 6d)
[12] = 3 μM 2a or 2 μM 2b with 0.075 mM LA pre-incubating, 24 h
[13] = 3 μM 2a or 2 μM 2b with 2 mM NAC, 24 h
[14] = 3 μM 2a or 2 μM 2b, 24 h (Fig. 2a)
[15] = 3 μM 2a or 2 μM 2b after pre-adding 0.075 mM LA
[16] = 3 μM 2a or 2 μM 2b, 24 h (Fig. 5b), control 30.8%
[17] = 3 μM 2a or 2 μM 2b alone, 24 h, 12 h (method)
[18] = 3 μM 2a or 2 μM 2b with 0.075 mM LA
[19] = Mus musculus, NIH3T3, read-out: IC50 NIH3T3

| SMILES | IC50 (MCF-7 cells; Homo sapiens, MCF7, 24 h) [µM] | IC50 (SGC7901 cells; Homo sapiens, SGC-7901, 24 h) [µM] | IC50 (HL-60 cells [1]; [8]) [µM] | IC50 (GES-1 cells; Homo sapiens, GES1, 24 h) [µM] | relative fluorescence intensity of DCF (ROS) versus control (HL-60 cells [2]) | ROS level with antioxidant (HL-60 cells [2]; 0.075 mM LA pre-incubated 4 h) | ROS level with antioxidant (HL-60 cells [2]; 1 mM DTT pre-incubated 4 h) | ROS level with antioxidant (HL-60 cells [2]; 1 mM VC pre-incubated 4 h) | ROS level with antioxidant (HL-60 cells [2]; 2 mM NAC pre-incubated 4 h) | ROS level with antioxidant (HL-60 cells [2]; pretreated with GSH) | IC50 (HEK293 cells; [9]) [µM] | morphology changes (Hoechst 33342 fluorescence) (HL-60 cells [3]) | apoptosis rate (FITC+/PI− and FITC+/PI+) (HL-60 cells [4]; 1.5 μM 2a or 1 μM 2b, 24 h) [%] | Q1-LL live (normal) cells (HL-60 cells [4]; [10]) [%] | apoptosis rate (HL-60 cells [4]; [11]) [%] | apoptosis rate (HL-60 cells [4]; [12]) [%] | Q1-LL live (normal) cells (HL-60 cells [4]; [13]) [%] | apoptosis rate (FITC+/PI− and FITC+/PI+) (HL-60 cells [4]; [14]) [%] | content of intracellular total GSH (HL-60 cells [5]; 24 h) | content of intracellular total GSH (HL-60 cells [5]; pretreatment with 0.075 mM LA) | also measured |
| --- | --- | --- | --- | --- | --- | --- | --- | --- | --- | --- | --- | --- | --- | --- | --- | --- | --- | --- | --- | --- | --- |
| Oc1ccccc1C=Nc1ccccc1 [Compound 1a, 2-((phenylimino)methyl) phenol, reference compound] | > 100 | > 100 | > 100 | > 100 |  |  |  |  |  |  |  |  |  |  |  |  |  |  |  |  |  |
| O=[As]c1ccc(N=Cc2ccccc2O)cc1 (centres unmarked) [Compound 2a, 2-(((4-(oxoarsanyl)phenyl)imino)methyl)phenol] | 2.53 ± 0.41 | 4.03 ± 0.89 | 0.77 ± 0.1 | 5.96 ± 1.23 | doubled approximately | scavenging ROS completely | scavenge additional ROS completely | decrease the level of ROS to that of control | scavenge additional ROS completely | began to decrease by a concentration-dependent way | 4.36 ± 0.62 | cell nuclear shrinkage and DNA incision | 9.3 | 44.3 | 55.7 | 11.4 | 86.6 | 55.5 | decreased significantly | could recover the content | ratio of GSH/GSSG (HL-60 cells [5]): showed the similar variation trend; concentration that could kill the majority of HL-60 cells (HL-60 cells [1]): less than 1 μM; intensity of Rh123 (mitochondrial membrane potential) (HL-60 cells [6]; 3 μM 2a or 2 μM 2b): drop obviously; intensity of Rh123 (mitochondrial membrane potential) (HL-60 cells [6]; [15]): recovered to some extent; proportion of mitochondrial membrane potential collapse (P2, JC-1) (HL-60 cells [6]; [16]): 68.3%; activity of Caspase-3 (Caspase-3 in HL-60 cells; [17]): enhanced; activity of Caspase-3 (Caspase-3 in HL-60 cells; [18]): could be deterred by 0.075 mM LA; relative content of cytochrome c versus control (HL-60 cells [7]): approximately six times; IC50 (NIH3T3 cells; [19]): 7.43 ± 0.37 µM; influence on normal leukocyte (cell viability, apoptosis) versus control (normal leukocyte): no more influence on normal leukocyte than control |
| COc1cc(C=Nc2ccc([As]=O)cc2)ccc1O (centres unmarked) [Compound 2b, 2-methoxy-4-(((4-(oxoarsanyl)phenyl)imino)methyl)phenol] | 2.81 ± 1.34 | 2.12 ± 0.48 | 0.51 ± 0.1 | 1.57 ± 0.26 | doubled approximately | scavenging ROS completely | eliminate the majority of ROS | eliminate the majority of ROS | removed completely | began to decrease by a concentration-dependent way | 2.29 ± 0.34 | cell nuclear shrinkage and DNA incision | 10.7 | 34.4 | 86.1 | 11.7 | 92.1 | 65.3 | decreased significantly | could recover the content | ratio of GSH/GSSG (HL-60 cells [5]): showed the similar variation trend; concentration that could kill the majority of HL-60 cells (HL-60 cells [1]): less than 1 μM; intensity of Rh123 (mitochondrial membrane potential) (HL-60 cells [6]; 3 μM 2a or 2 μM 2b): drop obviously; intensity of Rh123 (mitochondrial membrane potential) (HL-60 cells [6]; [15]): recovered to some extent; proportion of mitochondrial membrane potential collapse (P2, JC-1) (HL-60 cells [6]; 3 μM 2a or 2 μM 2b with 0.075 mM LA pre-incubation (Fig. 5b)): ~12%; proportion of mitochondrial membrane potential collapse (P2, JC-1) (HL-60 cells [6]; [16]): 78.5%; activity of Caspase-3 (Caspase-3 in HL-60 cells; [17]): enhanced; activity of Caspase-3 (Caspase-3 in HL-60 cells; [18]): could be deterred by 0.075 mM LA; relative content of cytochrome c versus control (HL-60 cells [7]): five times; IC50 (NIH3T3 cells; [19]): 2.72 ± 0.64 µM; influence on normal leukocyte (cell viability, apoptosis) versus control (normal leukocyte): no more influence on normal leukocyte than control |
| O=[As]c1ccc(N=Cc2c3ccccc3cc3ccccc23)cc1 (centres unmarked) [Compound 4a, 1-(anthracen-9-yl)-N-(4-(oxoarsanyl)phenyl) methanimine] | 11.3 ± 3.4 | 7.63 ± 3.02 | 15.9 ± 0.56 | 8.72 ± 3.76 |  |  |  |  |  |  |  |  |  |  |  |  |  |  |  |  | melting point: 91 to 92 °C; IC50 (HL-60 cells [1]; Homo sapiens, HL-60, read-out: half inhibitory concentration (IC50) for HL-60 cells): > 10 µM |
| O=[As]O [NaAsO2, reference compound] |  |  |  |  |  |  |  |  |  |  |  |  |  |  |  |  |  |  |  |  | IC50 (MCF-7 cells): 31.7 ± 0.67 µM; IC50 (HEK293 cells; read-out: IC50 HEK293): 14.6 ± 0.61 µM; IC50 (SGC7901 cells): 59 ± 11.8 µM; IC50 (HL-60 cells [1]; read-out: IC50 HL-60): 10.6 ± 3.06 µM; IC50 (GES-1 cells): 42.6 ± 11.6 µM; IC50 (NIH3T3 cells; read-out: IC50 NIH3T3): 10.8 ± 1.66 µM |

Source: publication PMC4949440 (Scientific Reports, 2016)
